{"source": "patent EP4700120A1", "about": "“NOVEL P[…] DON-DEGRADING ACTIVITY” (CJ Cheiljedang Corporation, priority 2023, dated 2024)", "test_system": "IPEC-J2 cells", "assay": "Cytotoxicity of DON degradation products, WST assay cell viability", "type": "cell-based", "settings": "for Cell Viability (%): 24 hours", "method": "A DMEM/F-12 medium supplemented with 10% FBS and 1% penicillin-streptomycin was added to a T75 flask, and the IPEC-J2 cell line was subcultured in the flask at 37°C and under 5% CO2. For cytotoxicity evaluation, the cultured cells were seeded in 96-well plates containing DMEM/F-12 with 10% FBS to 3×10^4 cells/100 µL, and the cells were incubated for 24 hour under the above conditions. Thereafter, the existing medium was removed, and the three samples in Table 4 were each applied to the cells so as to final concentrations of 2 µM, 1 µM, and 0.5 µM (based on the substrate concentration before the reaction), followed by additional incubation at 37°C in a CO2 incubator for 24 hours. After incubation, the existing substances were removed, and the cells were washed once with DMEM/F-12 and treated with a WST assay reagent (EZ-Cytox kit, DoGenBio) together with the medium. After 2 hours, absorbance at 450 nm was measured to determine cell viability of IPEC-J2 cells."}
{"smiles": "CC1=C[C@H]2O[C@@H]3[C@H](O)C[C@](C)([C@@]2(CO)[C@H](O)C1=O)[C@]31CO1", "note": "[DON Control, deoxynivalenol]", "values": [{"measurement": "cell viability", "setting": "IPEC-J2, 0.5 µM to 2 µM", "result": "approximately 65%"}, {"measurement": "Cell Viability (%)", "setting": "IPEC-J2, sample concentration 0.5 µM (substrate concentration before the reaction)", "result": 79.0, "unit": "%"}, {"measurement": "Cell Viability (%)", "setting": "IPEC-J2, sample concentration 1 µM (substrate concentration before the reaction)", "result": 71.4, "unit": "%"}, {"measurement": "Cell Viability (%)", "setting": "IPEC-J2, sample concentration 2 µM (substrate concentration before the reaction)", "result": 64.6, "unit": "%"}]}
